# Paper PMC9912809 (Inorganic chemistry, 2022)
# Read-outs that look alike come from different tables or passages of the source.
# Experiments:
# [1] = molecular target: T1, Recombinant human glyoxalase I (GLO1) (Homo sapiens, UniProt Q04760); experiment: GLO1 inhibition assay; assay type: biochemical
# T1 sequence (Q04760 2-184 limits assumed): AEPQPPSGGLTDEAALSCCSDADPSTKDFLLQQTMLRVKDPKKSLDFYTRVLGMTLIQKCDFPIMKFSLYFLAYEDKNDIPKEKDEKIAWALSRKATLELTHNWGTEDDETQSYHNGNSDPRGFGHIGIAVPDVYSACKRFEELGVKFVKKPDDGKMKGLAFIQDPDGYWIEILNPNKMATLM
# [2] = molecular target: Human recombinant MMP-2 catalytic domain (Homo sapiens, UniProt P08253); experiment: MMP-2 fluorogenic substrate inhibition assay; conditions: for Percent inhibition MMP-2: SD of triplicate in parentheses
# Chain of Human recombinant MMP-2 catalytic domain (P08253 110-452 limits assumed): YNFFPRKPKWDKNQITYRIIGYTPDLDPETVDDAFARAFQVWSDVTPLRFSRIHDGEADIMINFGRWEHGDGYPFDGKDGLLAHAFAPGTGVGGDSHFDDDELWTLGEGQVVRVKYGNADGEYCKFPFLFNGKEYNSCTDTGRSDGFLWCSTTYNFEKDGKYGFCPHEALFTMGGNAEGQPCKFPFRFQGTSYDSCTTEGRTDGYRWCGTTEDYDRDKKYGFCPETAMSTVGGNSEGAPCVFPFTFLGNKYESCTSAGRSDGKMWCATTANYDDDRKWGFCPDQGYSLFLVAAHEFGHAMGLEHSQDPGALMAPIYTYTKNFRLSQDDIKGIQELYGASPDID
# [3] = molecular target: T2, GLO1 (Homo sapiens, UniProt Q04760); experiment: Thermal shift assay; assay type: binding; conditions: thermal shift assay (Table S7)
# T2 sequence (Q04760 2-184 limits assumed): T1 sequence (Q04760 2-184 limits assumed)
# [4] = molecular target: Human carbonic anhydrase II (hCAII) (Homo sapiens, UniProt P00918); experiment: hCAII inhibition assay; assay type: biochemical
# [5] = logP by potentiometric octanol/water titration; assay type: physicochemical
# [6] = pKa determination with SiriusT3; assay type: physicochemical; conditions: SiriusT3, range pH 2.0 – 12.0, 0.15 M KCl
# [7] = 200 μM, SD of triplicate in parentheses
smiles,measurement,setting,value
"Oc1cccc2cccnc12 [8-HQ, 8-Hydroxyquinoline, reference compound]",inhibition at 200 µM,[1]; read-out: Percent inhibition GLO1,95%
same,IC50,[2],166 µM
same,inhibition at 200 µM,[2]; read-out: Percent inhibition MMP-2,57%
same,"ΔTM of MBI-bound GLO1 vs native, unbound GLO1",[3],> 3 °C
same,inhibition at 200 µM,[4]; read-out: Percent inhibition hCAII,< 5%
same,logP,[5]; octanol/water,1.86
same,logD,"[5]; octanol/water, pH 7.4",1.85
"COCCCn1ccc2cc(-c3cc(-c4ccccc4)cc(=O)n3O)cnc21 [Chugai-3d, reference compound]",Inhibition of GLO1 by positive control,[1]; 50 μM final concentration,complete inhibition
Oc1ccc2ncccc2c1 [Compound 32],Reduction of GLO1 inhibition activity compared to 8-HQ,[1]; 200 μM,> 50%
same,Percent inhibition GLO1,[1]; [7],<5%
same,Reduction of MMP-2 inhibition activity compared to 8-HQ,[2]; 200 μM,> 50%
same,Percent inhibition MMP-2,[2]; 200 μM,26 (7) %
CS(=O)(=O)Nc1cccc2cccnc12 [MBI 18],"Measured pKa1 (conjugated acid, protonated nitrogen of heteroaromatic ring)",[6],3.17
same,Measured pKa2 (hydroxyl group or its isosteric replacement),[6],8.97
same,Percent inhibition MMP-2,[2]; 200 μM,59 (2) %
same,IC50,"[2]; read-out: IC50 MMP-2, dose-response 10 μM to 1000 or 1500 μM (Figure S2)",154 ± 9.8 µM
same,Percent inhibition hCAII,[4]; [7],<5%
same,Measured logD7.4,"[5]; derived from measured pKa and logP, pH 7.4",0.99
same,Measured logP,"[5]; octanol/water, potentiometric, SiriusT3",1.01
"COc1ccc(S(=O)(=O)N(CC(=O)NO)CC(C)C)cc1 [NNGH, reference compound]",Inhibition of MMP-2 by positive control,[2]; 50 μM final concentration,complete inhibition
